Test results: patent publication EP0569777A2 (Bayer Corporation, priority 1992, dated 1993)
Entries after “also recorded” stand apart in the source; their conditions may differ.

Tests used:
C286.8A = experiment: Competitive EIA, peptide epitope mapping of monoclonal antibody C286.8A; assay type: binding, Murine; settings: Figure 4; plates coated with 50 ng of synthetic APP 695 (597-638); C286.8A (80 ng of IgG) preincubated 60 min at room temperature with competitor peptide
Experimental: Following incubation for 60 min at room temperature, plates were washed, and the amount of bound antibody determined by development with horseradish peroxidase-coupled goat-anti mouse polyclonal antibody according to standard procedures (Wunderlich et al., 1992, J. of Immunol. Methods 147:1). Percent competition (% C) of antibody binding to the plate was calculated from the absorbance at 450 nm data using the following equation: % C = 1.0 -(O.D. (+ competitor) - O.D. blank)/(O.D. (- competitor) - O.D. blank)X 100 [formula]

[1] = system: human brain P-2 derived aprotinin binding pool Y protease (chymotryptic-like serine protease); experiment: Immunoblot assay of APP degradation by the pool Y serine protease; assay type: biochemical; settings: pool Y 14 ug/ml, APP 35 nM
Experimental: Reactions were initiated at 37°C by enzyme addition to achieve the following initial component concentrations in a 16 ul volume: pool Y # 3-5 (14 ug/ml) after purification on a superdex 75 column, APP (35 nM), in 30 mM Mes buffer pH 6.5. Reactions were terminated by addition of 7.5 ul of 3X sample buffer. Immunoblots were developed using the rabbit antiserum to the APP C-terminal domain according to example 8. […] The following controls were also run: no inhibitor (lane 12), ethanol (lane 3), methanol (lane 5), pool Y only (lane 2), APP only at time zero (lane 13) and 4 hr (lane 14). Lanes 1 and 7 respectively show prestained Mr markers and the C-100 standard. Panel (b) 1.8 uM alpha-1-antichymotrypsin (lane 2), 156 uM TLCK (lane 3), 46 uM chymotrypsin inhibitor I (lane 4), 119 uM chymotrypsin inhibitor II (lane 5), 4 uM alpha-2-antiplasmin (lane 6), 51 uM alpha-1-antitrypsin (lane 7), 98 uM chymostatin administered in DMSO (lane 10), 153 uM methanolic TPCK (lane 12). Controls included: no inhibitor (lane 8), DMSO (lane 11), and methanol (lane 13). Pre-stained molecular weight markers and C-100 standards were applied to lanes 1 and 9 respectively. Incubation times of 4 and 2 hr were used in panels a) and b) respectively.
• i) Sub-cellular fractionation. This was performed essentially as described in Method 1, above. • ii) Solubilization. This was performed essentially as described in Method 1, above. • iii) Aprotinin-sepharose chromatography. Soluble (230 mg), P-2 (216 mg) or microsomal fraction (47 mg) described above was applied to a column of aprotinin sepharose (Sigma, catalog # 42268, 1.5 X 10 cm), previously equilibrated with 20 mM Tris HCl buffer pH 7.0. Once loaded the column was washed with equilibration buffer (100 ml), and then eluted with 60 ml of 50 mM sodium acetate buffer pH 5.0 containing 500 mM sodium chloride. The flow rate was 1.0 ml/min throughout. Eluted fractions (4 ml) were monitored at 280 nm, analysed using the Bradford protein assay, and examined for APP C-terminal processing activity as described in Example 8, using recombinant APP derived by expression in a baculo virus system. […] Active fractions from the purification of the P-2 fraction on aprotinin-sepharose were pooled, dialyzed against 50 mM Tris-HCl pH 7.5 and applied to a mono-Q column (HR 5/5), previously equilibrated with dialysis buffer. Once loaded, the column was eluted essentially as described in Method 1. above. Active fractions (2 ml), were monitored for A 280 nm, total protein (Bradford assay), and for their capacity for baculo virus derived APP C-terminal processing. […] Pools X, Y, and Z were each concentrated to either 2 ml (pool X and Y) or 3.6 ml (pool z) and separately applied to a Superdex 75 column (Pharmacia, Piscataway NJ.) previously equilibrated with 50 mM Tris-HCl pH 7.5, containing 150 mM sodium chloride. Once loaded, the column was eluted with equilibration buffer. Chromatography was performed at a flow rate of 1.0 ml/min throughout. Fractions (1 ml) were monitored for A 280 nm, total protein (Bradford assay) and for C-terminal processing of baculo expressed APP. The gel filtration was calibrated by chromatography of each of the following standard proteins: Thyroglobulin (670 kDa), bovine gamma globulin (158 kDa), ovalbumin (44 kDa), myoglobin (17.5 kDa) and vitamin B 12 (1.35 kDa).

[2] = system: human AD brain fraction P2 VII APP degrading activity; experiment: Immunoblot assay of APP 695 degradation by Mono-Q pool P2 VII; assay type: biochemical; settings: trial A, PMSF 0.8mM, pH 6.5, 24 hrs, 37°C
Experimental: ii) Solubilization. The membranous control or AD subfractions (P-2 or M) were solubilized by adjusting to the following conditions: 2% (v/v) Triton X-100 containing 50 mM Tris HCl buffer, pH 7.5. After stirring at 4°C for 3.5 hrs, the suspensions were centrifuged at 105,000 g x 60 min in a Beckman 70 Ti rotor. The following final protein concentrations were used in solubilization, for P-2 (3.9 to 4.0 mg/ml); and for M (1.4 to 1.6 mg/ml). Solubilized supernatants were stored at -70°C for later use. The soluble fraction was not treated with detergent but rather was adjusted to 50 mM in Tris HCl, pH 7.5, by the addition of stock 1M buffer. iii) Ion-exchange chromatography. Chromatography was performed using a Gilson gradient liquid chromatograph (model 305 and 306 pumps) equipped with a 50 ml Rheodyne stainless steel loop injector model 7125, and connected to a Mono Q HR 10/10 column (Pharmacia, Piscataway, NJ). Absorbance of column effluent was monitored at 280 nm using a Pharmacia UV-M detector and a Kippen-zonen chart recorder. […] In the initial studies, eluted fractions were monitored for A280 nm, total protein (Bradford assay), and peptidase activity (as decsribed in Examples 2 and 3). […] Fractions were monitored for A 280 nm, total protein (Bradford assay), peptidase activity, and activity for C-terminal processing of recombinant APP. […]

[3] = system: cathepsin D (human liver, Cal Biochem); experiment: Cathepsin D (2.8 ug/ml) in cocktail buffer 130 mM in each of acetate, Mes and Tris pH 5.0; settings: 37 C, up to 24hr
cathepsin D = experiment: Cathepsin D (2.5 ug/ml), sodium chloride (75 mM), 135 mM in each of tris, Mes and acetate buffer pH 5.0; settings: human, 37 C
P-2 peak B enzyme = P-2 peak B enzyme (7.5 ug/ml), sodium chloride (75 mM), 135 mM in each of tris, Mes and acetate buffer pH 5.0; settings: human, 37 C
P-2 enzyme (peak B) = P-2 enzyme (peak B) further purified on Superose 6HR (17.5 ug/ml) in acetate, Mes and Tris pH 5.0; settings: human, 37 C, up to 24hr
[4] = Mono-Q ion-exchange fractions of P-2, S and M subfractions of control and AD human cortex; settings: 37°C, up to 24 hrs

Molecule: 597-624: Synthetic peptide containing amino acids 597-624 of human APP695; amino acids 1-28 of the beta-amyloid sequence (LTETKTTVELLPVNGEFSLDDLQPWHSF; isoform APP695; UniProt P05067 597-624, looked up, fragment)
- ability to block binding of C286.8A to APP 597-638 (C286.8A): able to inhibit C286.8A binding in a dose-dependent fashion

Molecule: 597-638: Synthetic peptide containing amino acids 597-638 of human APP695; amino acids 1-42 of the beta-amyloid sequence
- ability to block binding of C286.8A to APP 597-638 (C286.8A): able to inhibit C286.8A binding in a dose-dependent fashion

Molecule: CC(C)CC(NC(=O)C1OC1C(=O)O)C(=O)NCCCCN=C(N)N (stereo not shown) [E-64]
- Inhibitor sensitivity of the pool Y protease (APP degradation) ([1]; 350 uM E-64, Mes pH 6.5, 4 hr, Figure 18a): unaffected

Molecule: O=S(=O)(F)Cc1ccccc1 [PMSF]
- Inhibitor sensitivity of the pool Y protease (APP degradation) ([1]; 860 uM PMSF in methanol, Mes pH 6.5, 4 hr, Figure 18a): inhibited
- Inhibitors (pH 6.5): compounds causing complete inhibition are listed ([2]; 11.5 kDa fragment): PMSF
- Inhibitors (pH 6.5): compounds causing complete inhibition are listed ([2]; >11.5 kDa fragment): PMSF

Molecule: Cc1ccc(S(=O)(=O)N[C@@H](CCCCN)C(=O)CCl)cc1 [TLCK]
- Inhibitor sensitivity of the pool Y protease (APP degradation) ([1]; 156 uM TLCK, Mes pH 6.5, 2 hr, Figure 18b): did not inhibit at all

Molecule: Cc1ccc(S(=O)(=O)N[C@@H](Cc2ccccc2)C(=O)CCl)cc1 [TPCK]
- Inhibitor sensitivity of the pool Y protease (APP degradation) ([1]; 153 uM methanolic TPCK, Mes pH 6.5, 2 hr, Figure 18b): strongly inhibited

Molecule: N=C(N)c1ccccc1 [benzamidine]
- Inhibitor sensitivity of the pool Y protease (APP degradation) ([1]; 5 mM benzamidine, Mes pH 6.5, 4 hr, Figure 18a): without effect

Molecule: CC(C)C[C@H](NC(=O)[C@@H](NC(=O)N[C@@H](Cc1ccccc1)C(=O)O)[C@@H]1CCN=C(N)N1)C(=O)N[C@H](C=O)Cc1ccccc1 [chymostatin]
- Inhibitor sensitivity of the pool Y protease (APP degradation) ([1]; 98 uM chymostatin administered in DMSO, Mes pH 6.5, 2 hr, Figure 18b): Weak inhibition

Molecule: APP 597-612: Synthetic peptide containing amino acids 597-612 of human APP695; amino acids 1-16 of the beta-amyloid sequence (LTETKTTVELLPVNGE; isoform APP695; UniProt P05067 597-612, looked up, fragment)
- ability to block binding of C286.8A to APP 597-638 (C286.8A): able to inhibit C286.8A binding in a dose-dependent fashion

Molecule: APP 608-624: Synthetic peptide, amino acids 608-624 of human APP695; beta-amyloid peptide sequence 12-28 (PVNGEFSLDDLQPWHSF; isoform APP695; UniProt P05067 608-624, looked up, fragment)
- ability to block binding of C286.8A to APP 597-638 (C286.8A): did not inhibit binding

Molecule: APP 621-631: Synthetic peptide, amino acids 621-631 of human APP695; beta-amyloid peptide sequence 25-35 (WHSFGADSVPA; isoform APP695; UniProt P05067 621-631, looked up, fragment)
- ability to block binding of C286.8A to APP 597-638 (C286.8A): did not inhibit binding

Molecule: APP 645-695: Synthetic peptide, amino acids 645-695 of human APP695, C-terminal domain, devoid of any beta-amyloid sequence (AADRGLTTRPGSGLTNIKTEEISEVKMDAEFRHDSGYEVHHQKLVFFAEDV; isoform APP695; UniProt P05067 645-695, looked up, fragment)
- ability to block binding of C286.8A to APP 597-638 (C286.8A): did not inhibit binding

Molecule: N-Dansyl-Ile-Ser-Glu-Val-Lys-Met-Asp-Ala-Glu-Phe-Arg-NH2
- cleaved bond [3]: Glu-Val, major; also recorded: Met-Asp, minor
- cleaved bond (cathepsin D): E-V and M-D
- cleaved bond (P-2 peak B enzyme): E-V and M-D
- cleaved bond (P-2 enzyme (peak B)): Met-Asp, minor; also recorded: Glu-Val, major

Molecule: N-dansyl-Ile-Ser-Glu-Val-Lys-Met-Asp-Ala-Glu-Phe-Arg-His-Asp-Asp-Asp-Asp
- cleaved bond [4]: V-K, major and K-M and M-D and S-E and E-V
